How the values were obtained:
[1] = test system: FVII (Factor VII), mF7-III target gene; experiment: RNA interference against FVII by 3′-capped siRNAs (FIG. 2); set-up: species or system mouse; details: 19-mer blunt-ended mF7-III siRNA, A12S17
[2] = Serum stability of siRNAs with 3′ end caps in mouse serum; details: 100% mouse serum, 37° C., up to 24 h; compared to luciferase and dTsdT controls
[3] = Serum stability of siRNAs with 3′ end caps in human serum; details: 100% human serum, 37° C., up to 24 h; gel with SYBR gold
human SSB = experiment: Human SSB RNAi agent, RNA interference in vitro; format: cell-based
[4] = test system: human HAMP (Hepcidin) gene; experiment: Hepcidin mRNA down regulation by HAMP siRNA-PAZ ligand conjugates in HuH-7 cells; format: cell-based; details: Hepcidin RNAi agent, format S402+ribitol+MOE clamp

## OCCOCCOCCO [Triethylene glycol]
[1]
  ability of the RNAi agent to perform RNA interference (FIG. 2): allow the RNAi agent to perform RNA interference

## C1C2CC3CC1CC(C2)C3 [Adamantane]
[1]
  ability of the RNAi agent to perform RNA interference (FIG. 2): allow the RNAi agent to perform RNA interference

## c1ccc(-c2ccccc2)cc1 [Biphenyl]
[1]
  ability of the RNAi agent to perform RNA interference (FIG. 2): allow the RNAi agent to perform RNA interference
[2]
  stability in mouse serum: increased stability
[3]
  stability in human serum: increased stability

## hs_SSB_309_AS_18mer-C3-C6: "human SSB RNAi agent"; "AS: UuAcAUuAAAGUCUGU87-C3pC6", "S: cAAcAGAcuuuAAuGu55-C3pC6" (SEQ ID NO: 90, 91) (chain 1 UUACAUUAAAGUCUGUTG; chain 2 CAACAGACUUUAAUGUAA; C3pC6 3' end caps on both strands, further chemistry not given here)
Human SSB
  RNA interference in vitro: effective at mediating RNA interference in vitro

## c1ccc(-c2ccccc2)cc1 [BP (biphenyl), biphenyl]
[4]
  Hepcidin KD at 5 nM in vitro (%): 68%

Reference: patent US11008570B2, “3′ end caps for RNAi agents for use in RNA interference” (Novartis AG, priority 2013, dated 2021)
